Data: PubChem BioAssay AID2060897 (Molecular Pharmacology Branch, DTP, NCI, 2025)

System: 966289-007-R4-J1-PDC complex spheroid viability
Assay: Anticancer human tumor 966289-007-R4-J1-PDC patient-derived pancreatic adenocarcinoma cell line growth inhibition [RAS]
Conditions: for IC50: curve of first compound; for viability, T/C: stronger effect = lower value
From the text: RAS pathway inhibitors in Combinations in Complex Spheroids
A high-throughput screen of multi-cell type tumor spheroids was designed to identify active combinations of RAS pathway inhibitors and targeted small molecules. Complex spheroids include a stromal component modeled by human endothelial cells (HUVEC) and fibroblasts modeled by human mesenchymal stem cells (MSCs). The concentration ranges selected for each drug and investigational agent were based upon clinically achievable concentrations if the clinical Cmax of the agent was known.
Compounds. The drugs and investigational agents: abemaciclib (NSC768073), cobimetinib (NSC768068), divarasib (GDC6063, NSC841802), docetaxel (NSC628503), GDC-1971 (RLY-1971, NSC841576), gemcitabine (NSC613327), inavolisib (NSC800729), ipatasertib (NSC767898), KB-0742 (NSC834161), MRTX-1133 (NSC836407), osimertinib (NSC779217), RMC-4630 (NSC839698), RMC-6236 (NSC851965), RMC-6291 (NSC852671), Ro-3306 (NSC812927), sapanisertib (NSC764658), SN-38 (NSC673596), staurosporine (NSC755774), SY5609 (NSC837396), and tovorafenib (DAY101, NSC766906), were obtained from the National Cancer Institute (NCI) Developmental Therapeutics Program Chemical Repository. The FDA-approved anticancer drug set is available from the NCI Developmental Therapeutics Program. […] The stock solutions were prepared in dimethyl sulfoxide (DMSO, Sigma-Aldrich, St. Louis, MO, cat. D2650) at 800-fold the tested concentration and stored at -70 degrees C prior to their use. All drugs and investigational agents were tested over a range starting from a high concentration at or near the clinical Cmax and decreasing in half-log increments. If the clinical Cmax for an agent had not been determined, the highest concentration tested was 10 microM.
Cell Culture. All cells were maintained in an incubator at 37 degrees C and 5% CO2 with 95% humidity. The PDC lines were cultured according to standard operating procedures established by the NCI PDMR. All PDCs were thawed and cultured in Matrigel-coated flasks prepared with a working solution of 1X Ham's F-12 nutrient mix, without supplementation (Invitrogen, Waltham, MA, cat. 11765054), 100 U/mL penicillin-streptomycin (Invitrogen, cat. 15140122), and 2.5% Matrigel (Corning Inc., Corning, NY, cat. 354248) for the first three passages. The 362531-283-R-J2-PDC and 782815-120-R-J1-PDC lines were cultured in 6C/Colon 1B media, which includes advanced DMEM/F-12 (Thermo Fisher Scientific, cat. 12634028), 10 mM HEPES (Thermo Fisher Scientific, cat. 15630080), 1X GlutaMAX supplement (Thermo Fisher Scientific, cat. 35050061), 0.1 mg/mL primocin (InvivoGen, San Diego, CA, cat. ant-pm-2), 10% defined fetal bovine serum, heat inactivated (HyClone Laboratories Inc., Logan, UT, cat. SH30070.03HI), 50% L-WRN conditioned media (ATCC, cat. CRL-3276), 1.25 mM N-Acetyl-L-cysteine (Sigma-Aldrich, cat. A9165), 10 mM nicotinamide (Sigma-Aldrich, cat. N0636), 1X B-27 supplement (Thermo Fisher Scientific, cat. 17504044), 1X N-2 supplement (Thermo Fisher Scientific, cat. 17502048), 50 ng/mL human EGF (Thermo Fisher Scientific, cat. PHG0311), and 10 microM Y-27632 dihydrochloride (Tocris Bioscience, cat. 1254). The K12877-001-R-J1-PDC line was cultured in 6I media, which includes all 6C/Colon 1B media plus 10 ng/mL human FGF-10 (PeproTech, cat. 100-26), 1 ng/mL human FGF-2 (PeproTech, cat. 100-18B), 1 µM prostaglandin E2 (Tocris Bioscience, cat. 2296), […] hydrocortisone (Sigma-Aldrich, cat. H4001), and […] bovine insulin (Sigma-Aldrich, cat. I6634). The K86415-001-R-J1-PDC line was cultured in 6D media, which includes all 6C/Colon 1B media components minus the L-WRN conditioned media. The 485176-168-R4-J1-PDC was cultured in PANC media, which includes all 6C/Colon 1B media plus 100 ng/mL human FGF-10 (PeproTech, cat. 100-26), 500 nM SB-431542 (Selleckchem, cat. S1067), and 10 nM gastrin (Tocris Bioscience, cat. 3006). […]

[1] = second compound 0.0316 µM, first compound 0.0316 µM
[2] = second compound 0.0316 µM, first compound 0.1 µM
[3] = second compound 0.0316 µM, first compound 0.316 µM
[4] = second compound 0.0316 µM, first compound 1 µM
[5] = second compound 0.0316 µM, first compound 3.16 µM
[6] = second compound 0.0316 µM, first compound 10 µM
[7] = second compound 0.1 µM, first compound 0.0316 µM
[8] = second compound 0.1 µM, first compound 0.1 µM
[9] = second compound 0.1 µM, first compound 0.316 µM
[10] = second compound 0.1 µM, first compound 1 µM
[11] = second compound 0.1 µM, first compound 3.16 µM
[12] = second compound 0.1 µM, first compound 10 µM
[13] = second compound 0.316 µM, first compound 0.0316 µM
[14] = second compound 0.316 µM, first compound 0.1 µM
[15] = second compound 0.316 µM, first compound 0.316 µM
[16] = second compound 0.316 µM, first compound 1 µM
[17] = second compound 0.316 µM, first compound 3.16 µM
[18] = second compound 0.316 µM, first compound 10 µM
[19] = second compound 1 µM, first compound 0.0316 µM
[20] = second compound 1 µM, first compound 0.1 µM
[21] = second compound 1 µM, first compound 0.316 µM
[22] = second compound 1 µM, first compound 1 µM
[23] = second compound 1 µM, first compound 3.16 µM
[24] = second compound 1 µM, first compound 10 µM
[25] = second compound 3.16 µM, first compound 0.0316 µM
[26] = second compound 3.16 µM, first compound 0.1 µM
[27] = second compound 3.16 µM, first compound 0.316 µM
[28] = second compound 3.16 µM, first compound 1 µM
[29] = second compound 3.16 µM, first compound 3.16 µM
[30] = second compound 3.16 µM, first compound 10 µM
[31] = second compound 10 µM, first compound 0.0316 µM
[32] = second compound 10 µM, first compound 0.1 µM
[33] = second compound 10 µM, first compound 0.316 µM
[34] = second compound 10 µM, first compound 1 µM
[35] = second compound 10 µM, first compound 3.16 µM
[36] = second compound 10 µM, first compound 10 µM
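Also: spheroids exposed to agents for one week before readout.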
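For viability, T/C in this document: percent viability relative to DMSO vehicle control wells as 100%.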

## CC(C)NCC(C(=O)N1CCN(c2ncnc3c2C(C)CC3O)CC1)c1ccc(Cl)cc1 (centres undefined) + C#Cc1c(F)ccc2cc(O)cc(-c3ncc4c(N5CC6CCC(C5)N6)nc(OCC56CCCN5CC(F)C6)nc4c3F)c12
Second compound 0.0316 µM
  IC50: 6.4 µM
Second compound 0.1 µM
  IC50: 6.04 µM
Second compound 0.316 µM
  IC50: 5.61 µM
Second compound 1 µM
  IC50: 6.95 µM
Second compound 3.16 µM
  IC50: 5.64 µM
Second compound 10 µM
  IC50: 2.76 µM
[1]
  viability, T/C: 98.7%
[2]
  viability, T/C: 111%
[3]
  viability, T/C: 108%
[4]
  viability, T/C: 111%
[5]
  viability, T/C: 66.9%
[6]
  viability, T/C: 39.3%
[7]
  viability, T/C: 103%
[8]
  viability, T/C: 109%
[9]
  viability, T/C: 124%
[10]
  viability, T/C: 101%
[11]
  viability, T/C: 66.4%
[12]
  viability, T/C: 37.4%
[13]
  viability, T/C: 106%
[14]
  viability, T/C: 103%
[15]
  viability, T/C: 128%
[16]
  viability, T/C: 102%
[17]
  viability, T/C: 66.6%
[18]
  viability, T/C: 33.6%
[19]
  viability, T/C: 104%
[20]
  viability, T/C: 106%
[21]
  viability, T/C: 111%
[22]
  viability, T/C: 117%
[23]
  viability, T/C: 74.6%
[24]
  viability, T/C: 38.6%
[25]
  viability, T/C: 116%
[26]
  viability, T/C: 106%
[27]
  viability, T/C: 114%
[28]
  viability, T/C: 96.7%
[29]
  viability, T/C: 67.5%
[30]
  viability, T/C: 33%
[31]
  viability, T/C: 110%
[32]
  viability, T/C: 111%
[33]
  viability, T/C: 125%
[34]
  viability, T/C: 103%
[35]
  viability, T/C: 43%
[36]
  viability, T/C: 26.1%

## CC(Nc1ccc2c(c1)OCCn1cc(N3C(=O)OCC3C(F)F)nc1-2)C(N)=O (centres undefined) + C#Cc1c(F)ccc2cc(O)cc(-c3ncc4c(N5CC6CCC(C5)N6)nc(OCC56CCCN5CC(F)C6)nc4c3F)c12
Second compound 0.0316 µM
  IC50: > 10 µM
Second compound 0.1 µM
  IC50: > 10 µM
Second compound 0.316 µM
  IC50: > 10 µM
Second compound 1 µM
  IC50: > 10 µM
Second compound 3.16 µM
  IC50: > 10 µM
Second compound 10 µM
  IC50: > 10 µM
[1]
  viability, T/C: 108%
[2]
  viability, T/C: 106%
[3]
  viability, T/C: 100%
[4]
  viability, T/C: 95.5%
[5]
  viability, T/C: 107%
[6]
  viability, T/C: 86.8%
[7]
  viability, T/C: 104%
[8]
  viability, T/C: 110%
[9]
  viability, T/C: 101%
[10]
  viability, T/C: 112%
[11]
  viability, T/C: 111%
[12]
  viability, T/C: 86.9%
[13]
  viability, T/C: 110%
[14]
  viability, T/C: 102%
[15]
  viability, T/C: 91.6%
[16]
  viability, T/C: 95.3%
[17]
  viability, T/C: 94.8%
[18]
  viability, T/C: 77.3%
[19]
  viability, T/C: 109%
[20]
  viability, T/C: 109%
[21]
  viability, T/C: 121%
[22]
  viability, T/C: 113%
[23]
  viability, T/C: 115%
[24]
  viability, T/C: 81.2%
[25]
  viability, T/C: 104%
[26]
  viability, T/C: 95%
[27]
  viability, T/C: 115%
[28]
  viability, T/C: 91.6%
[29]
  viability, T/C: 97%
[30]
  viability, T/C: 83.1%
[31]
  viability, T/C: 98.9%
[32]
  viability, T/C: 113%
[33]
  viability, T/C: 119%
[34]
  viability, T/C: 104%
[35]
  viability, T/C: 95.9%
[36]
  viability, T/C: 90.7%
